Source: patent US20230146455A1, “TREATMENT OF INFLAMMATORY DISEASES WITH PEPTIDES AND PHARMACEUTICAL COMPOSITIONS” (Yuyu Pharma, Inc., priority 2020, published 2023)
Several values for one entry are separate records, joined by “and”; a condition that tells them apart may be missing. Equal values may be shown once. Where a SMILES comes first, the peptide text is derived from it. [ ]: non-standard residue; d: D form. Hyp = O=C(O)[C@@H]1C[C@@H](O)CN1

System: CCL5/RANTES
Test: Example 9 Luminex, LPS hPBMCs: CCL5/RANTES
Format: cell-based, human
Settings: PBMC + LPS(5 ug/ml)
Protocol: Treatment Human PBMCs were pretreated with YY-101, YDE-011 and YDE-043 or reference compound; Xiidra® at various concentration (ranging from 1 nM to 100 uM) for 2 h before stimulation. An equal volume of 0.5% DMSO was used as a vehicle control. Then, the cells were treated with LPS at 5 ug/ml. The supernatants from treated cells were harvested at 24 h and placed in a 96 well for Luminex cytokine & chemokine profiling using a Luminex 200 multiplex assay (Luminex; R&D system, USA).
The main study arm with triplicate wells per group in a 24-well plate: • 1. Blank • 2. PBMC: 0.5% DMSO • 3. PBMC+LPS (5 ug/ml) • 4. PBMC+YY-101 100 uM • 5. PBMC+YY-101 10 uM • 6. PBMC+YY-101 1 uM • 7. PBMC+YY-101 0.1 uM • 8. PBMC+YY-101 0.01 uM • 9. PBMC+LPS (5 ug/ml)+Xiidra®100 uM • 10. PBMC+LPS (5 ug/ml)+Xiidra® 10 uM • 11. PBMC+LPS (5 ug/ml)+Xiidra® 1 uM • 12. PBMC+LPS (5 ug/ml)+Xiidra®0.1 uM • 13. PBMC+LPS (5 ug/ml)+Xiidra®0.01 uM • 14. PBMC+LPS (5 ug/ml)+Xiidra®0.001 uM • 15. PBMC+LPS (5 ug/ml)+YY-101 100 uM • 16. PBMC+LPS (5 ug/ml)+YY-101 10 uM • 17. PBMC+LPS (5 ug/ml)+YY-101 1 uM • 18. PBMC+LPS (5 ug/ml)+YY-101 0.1 uM • 19. PBMC+LPS (5 ug/ml)+YY-101 0.01 uM • 20. PBMC+LPS (5 ug/ml)+YY-101 0.001 uM • 21. PBMC+LPS (5 ug/ml)+YDE-011 100 uM • 22. PBMC+LPS (5 ug/ml)+YDE-011 10 uM • 23. PBMC+LPS (5 ug/ml)+YDE-011 1 uM • 24. PBMC+LPS (5 ug/ml)+YDE-011 0.1 uM • 25. PBMC+LPS (5 ug/ml)+YDE-011 0.01 uM • 26. PBMC+LPS (5 ug/ml)+YDE-011 0.001 uM • 27. PBMC+LPS (5 ug/ml)+YDE-043 100 uM • 28. PBMC+LPS (5 ug/ml)+YDE-043 10 uM • 29. PBMC+LPS (5 ug/ml)+YDE-043 1 uM • 30. PBMC+LPS (5 ug/ml)+YDE-043 0.1 uM • 31. PBMC+LPS (5 ug/ml)+YDE-043 0.01 uM • 32. PBMC+LPS (5 ug/ml)+YDE-043 0.001 uM
Multiplex assay was used to measure 30 cytokines and chemokines. The 1:2, 1:10 and 1:200 diluted cell supernatant and serial dilution of the standard were dispensed into a 96 well plate at 50 ul/well. Then, the pre-mixed cocktail of antibody-coated magnetic beads was dispensed at 50 ul/well and incubated at room temperature for 2 h in a horizontal orbital microplate shaker at 800±500 rpm. The beads were washed using a magnetic device to prevent loss. The biotin-antibody was dispensed in 50 ul of each well and incubated at room temperature for 1 h in a shaker at 800±500 rpm. After washing, streptavidin-PE was added at 50 ul/well and incubated at room temperature for 30 min in a shaker under the same conditions. Finally, after washing, wash buffer (100 ul/well) was added to the plate and incubated in a shaker for 2 min. The Luminex™ 200 setting were set according to the manufacturer's protocol. The data was calculated with a standard five-parameter logistic nonlinear regression analysis of the data (xPonent software 4.2, USA). The levels of cytokine/chemokine are normalized to the live cell counts (1×10^5 cells/mL) and presented as concentrations per mL (pg/mL or ng/mL).

[1] = test article 0.001 uM, single replicates (1st, 2nd, 3rd)
[2] = test article 0.01 uM, single replicates (1st, 2nd, 3rd)
[3] = test article 0.1 uM, single replicates (1st, 2nd, 3rd)
[4] = test article 1 uM, single replicates (1st, 2nd, 3rd)
[5] = test article 10 uM, single replicates (1st, 2nd, 3rd)
[6] = test article 100 uM, single replicates (1st, 2nd, 3rd)

SMILES: CC(C)C[C@H](NC(=O)CNC(=O)[C@H](CC(C)C)NC(=O)[C@H](CCC(N)=O)NC(=O)CNC(=O)[C@@H]1C[C@@H](O)CN1)C(=O)N[C@@H](C)C(=O)NCC(=O)N1CCC[C@H]1C(=O)N[C@@H](CCCCN)C(=O)O [YDE-011] (H-[Hyp]GQLGLAGPK-OH)
- Concentration (CCL5/RANTES) (test article 0.001 uM, Mean): 209.7 pg/mL
- MFI (Bead name: CCL5/RANTES) (test article 0.001 uM, Mean): 477.2
- conc/live cell (CCL5/RANTES) (test article 0.001 uM, Mean): 39.5 pg/10^5
- Concentration (CCL5/RANTES) [1]: 202.5 pg/ml (2×) and 224.1 pg/ml
- MFI (Bead name: CCL5/RANTES) [1]: 455.5 (2×) and 520.5
- conc/live cell (CCL5/RANTES) [1]: 45.0 pg/10^5 and 34.9 pg/10^5 and 38.6 pg/10^5
- Concentration (CCL5/RANTES) (test article 0.01 uM, Mean): 215.3 pg/mL
- MFI (Bead name: CCL5/RANTES) (test article 0.01 uM, Mean): 494.0
- conc/live cell (CCL5/RANTES) (test article 0.01 uM, Mean): 37.1 pg/10^5
- Concentration (CCL5/RANTES) [2]: 216.5 pg/mL and 220.2 pg/mL and 209.4 pg/mL
- MFI (Bead name: CCL5/RANTES) [2]: 497.5 and 508.5 and 476.0
- conc/live cell (CCL5/RANTES) [2]: 34.9 pg/10^5 and 43.2 pg/10^5 and 33.2 pg/10^5
- Concentration (CCL5/RANTES) (test article 0.1 uM, Mean): 207.0 pg/mL
- MFI (Bead name: CCL5/RANTES) (test article 0.1 uM, Mean): 468.8
- conc/live cell (CCL5/RANTES) (test article 0.1 uM, Mean): 36.3 pg/10^5
- Concentration (CCL5/RANTES) [3]: 206.7 pg/mL and 205.2 pg/mL and 209.0 pg/mL
- MFI (Bead name: CCL5/RANTES) [3]: 468.0 and 463.5 and 475.0
- conc/live cell (CCL5/RANTES) [3]: 31.3 pg/10^5 and 41.0 pg/10^5 and 36.7 pg/10^5
- Concentration (CCL5/RANTES) (test article 1 uM, Mean): 199.8 pg/mL
- MFI (Bead name: CCL5/RANTES) (test article 1 uM, Mean): 447.5
- conc/live cell (CCL5/RANTES) (test article 1 uM, Mean): 39.8 pg/10^5
- Concentration (CCL5/RANTES) [4]: 205.5 pg/mL and 199.5 pg/mL and 194.4 pg/mL
- MFI (Bead name: CCL5/RANTES) [4]: 464.5 and 446.5 and 431.5
- conc/live cell (CCL5/RANTES) [4]: 37.4 pg/10^5 and 41.6 pg/10^5 and 40.5 pg/10^5
- Concentration (CCL5/RANTES) (test article 10 uM, Mean): 204.9 pg/mL
- MFI (Bead name: CCL5/RANTES) (test article 10 uM, Mean): 462.7
- conc/live cell (CCL5/RANTES) (test article 10 uM, Mean): 38.9 pg/10^5
- Concentration (CCL5/RANTES) [5]: 214.7 pg/mL and 201.8 pg/mL and 198.1 pg/mL
- MFI (Bead name: CCL5/RANTES) [5]: 492.0 and 453.5 and 442.5
- conc/live cell (CCL5/RANTES) [5]: 39.8 pg/10^5 and 34.8 pg/10^5 and 42.1 pg/10^5
- Concentration (CCL5/RANTES) (test article 100 uM, Mean): 161.8 pg/mL
- MFI (Bead name: CCL5/RANTES) (test article 100 uM, Mean): 338.5
- conc/live cell (CCL5/RANTES) (test article 100 uM, Mean): 26.7 pg/10^5
- Concentration (CCL5/RANTES) [6]: 170.4 pg/mL and 153.5 pg/mL and 161.5 pg/mL
- MFI (Bead name: CCL5/RANTES) [6]: 362.5 and 315.5 and 337.5
- conc/live cell (CCL5/RANTES) [6]: 27.9 pg/10^5 and 25.2 pg/10^5 and 26.9 pg/10^5
